Columns and labels:
Type in all cases: physicochemical
[1] = Suds testing protocol (FOAMSCAN foam / suds / lather volume); settings: for Foam Volume: lauric acid 2000 ppm
Experimental: SUDS TESTING PROTOCOL: Foam volume and foam mileage are measured by […] instrument manufactured by […].-Concept, Longessaigne, France. The experiment is run at 25.0° C. (±0.5° C.). […] The cleaning solution contains 25 ppm Technical Body Soil (“TBS”; consisting of 15 wt. % coconut oil, 15 wt. % oleic acid, 15 wt. % paraffin oil, 15 wt. % olive oil, 15 wt. % cottonseed oil, 5 wt. % squalene, 5 wt. % cholesterol, 5 wt % myristic acid, 5 wt. % palmitic acid, and 5 wt. % stearic acid). The cleaning solution is mixed and aged at 60° C. for an hour and is placed into the […] sample chamber, a 1000-mL cylindrical transparent plastic cell. […] The suds volume recorded at the end of stifling is defined as the suds volume generated. The suds mileage is monitored by the time course of the suds height over 10 minutes. The final suds volume at the end of the 10 minutes is reported. […] Hardness is indicated by a calculation where both calcium and magnesium values are reported as mg/L (ppm), in which 2.5[Ca]+4.12[Mg] equals hardness in mg/L. The unit “grains per gallon” (gpg) is defined as 1 grain (64.8 mg) of calcium carbonate per U.S. gallon (3.79 L), or 17.118 ppm. Thus, 1 gpg is equivalent to 17.118 ppm of the Calcium and Magnesium solution at a 3:1 molar ratio of calcium to magnesium.

[2] = Critical micelle formation concentration (CMC) by surface tension
Experimental: MEASUREMENT OF THE CRITICAL MICELLE FORMATION CONCENTRATION (CMC): CMC measurements are conducted by a measurement of a surface tension measure as a function of surfactant concentration according to “Surfactant: A Practical Handbook,” K. Robert Lange ed., Hanser Publishers, Munich (1999), pp. 16-17. A 5000-ppm stock solution of the samples is prepared for the analysis on a Kruss K100 Tensiometer (Kruss USA, Charlotte, N.C.). The hardness level and pH are adjusted using corresponding stock solutions of artificial hardness and an NaOH solution. The concentration series is generated automatically with a computer-controlled Dosimat, so that only a surfactant stock solution needs to be prepared. Measurements of surface tension at the air-water interface are carried out at twelve surfactant concentrations. The samples are analyzed at pH 8 and pH 10 for hardness values of 4 gpg and 8 gpg, all measurements being taken at 25.0° C. (±0.5° C.). The CMC data are analyzed by plotting increase in surface tension with respect to dilution by using the “CMC Add-In” of the Lab Desk software from Kruss. The CMC is defined as the surfactant concentration at the breakpoint in the titration curve.

[3] = Micellar lifetime (τ2) by stopped flow conductimetry; settings: pH 10.0 (wash), lauric acid system
Experimental: MEASUREMENT OF […] […] (τ2): The micellar stability of a surfactant system is measured by Stopped Flow Conductimetry. The experiment is run at 25.0° C. (±0.5° C.). […] The conductivity of the solution is monitored by a MCS-200 Impedance Spectrometer from Bio-Logic SAS. The τ2 value is defined as the time required to reach a new equilibrium, as determined by curve-fit software BKMCS (version #1) from the Bio-Logic SAS company.

[4] = Marangoni effect (E′/E″), oscillating drop interfacial rheology; settings: pH 10.0 (wash), lauric acid system
Experimental: […] EFFECT (EYE'') MEASUREMENT: The Marangoni Effect quantifies the origin of foam film stability. Dynamic interfacial rheology is measured by a DSA100 (Kruss USA, Charlotte, N.C.) instrument equipped with an Oscillating Drop Module (ODM). The measurement is based on monitoring oscillating pendent drop shape with a CCD camera. The dynamic changes in the surface area and the interfacial tension (air-liquid interface) of the pendent drop from oscilating at equal periods, were recorded. A delay of dynamic interfacial tension change to dynamic surface area change is expressed as a phase angle Φ […]. From the measured phase angle, the Elastic Modulus (E') and Viscous Modulus (E'') are calculated. The Marangoni Effect EYE'' is computed from the relationship, E'/E''=cot Φ. At various surfactant levels, measurements are conducted at pH 10 and 4 gpg hardness in a base matrix of 300 ppm LAS (detergent measurements only) or 2000 ppm fatty acid (bar soap measurements only); 2300 ppm Na2SO4, and 25 ppm TBS (described above). The pH-switchable cosurfactants are added on the top of the base matrix to assess their impact on foam-film stability. The ODM operation is conducted with a period time of 2 seconds and an oscillation amplitude of 0.1 or 0.5.

CCCCCCCCCCCC(=O)[O-].[Na+] [Sodium Laurate]
Change of Lather Volume (rinse vs wash) ([1]; 4 gpg): −72%
Change of Lather Volume (rinse vs wash) ([1]; 8 gpg): −100%
Change of Lather Volume (rinse vs wash) ([1]; DI Water): −23%
Lather Volume ([1]; pH 8.0 (rinse), 4 gpg): 60 mL
Lather Volume ([1]; pH 8.0 (rinse), 8 gpg): 0 mL
Lather Volume ([1]; pH 8.0 (rinse), 12 gpg): 0 mL
Lather Volume ([1]; pH 8.0 (rinse), 16 gpg): 0 mL
Lather Volume ([1]; pH 8.0 (rinse), DI Water): 170 mL
Lather Volume ([1]; pH 10.0 (wash), 4 gpg): 215 mL
Lather Volume ([1]; pH 10.0 (wash), 8 gpg): 175 mL
Lather Volume ([1]; pH 10.0 (wash), 12 gpg): 0 mL
Lather Volume ([1]; pH 10.0 (wash), 16 gpg): 0 mL
Lather Volume ([1]; pH 10.0 (wash), DI Water): 220 mL

CCCCCCCCCCCC[N+](C)(C)CCO.[Br-] [KDB, dodecyl-(2-hydroxyethyl)-dimethyl ammonium bromide]
CMC ([2]; pH 8): 48 ppm
CMC ([2]; pH 10): 43 ppm

CCCCCCCCCCCCNCCC[N+](C)(C)C.[Br-] [QUAT, 3-(dodecylamino)-N,N,N-trimethylpropan-1-aminium bromide]
CMC ([2]; pH 8): 82 ppm
CMC ([2]; pH 10): 75 ppm

CCCCCCCCCCCC(=O)O [Lauric Acid]
Foam Volume ([1]; pH 8.0 (rinse)): 222 mL
Foam Volume ([1]; pH 10.0 (wash)): 80 mL
τ2 [3]: 39 ms
E′/E″ [4]: 1.5

Reference: patent US8877696B2, “Cleaning compositions comprising pH-switchable amine surfactants” (The Proctor & Gamble Company, priority 2012, dated 2014)
